Measurements as given in US8143290B2, “Chemical compounds 572” (AstraZeneca AB, priority 2006, dated 2012).

What follows are compounds tested against T1, recombinant human GR (Homo sapiens, UniProt P04150) (assay: Human Glucocorticoid Receptor (GR) Assay, fluorescence polarization). Settings: GS Red tracer, incubated 2 h at r.t., XLfit model 205, read-out: GRhuFL_FP_v2 Mean IC50.
T1 construct: purchased Panvera/Invitrogen P2812 (kit P2893)
T1 sequence (P04150 1-777): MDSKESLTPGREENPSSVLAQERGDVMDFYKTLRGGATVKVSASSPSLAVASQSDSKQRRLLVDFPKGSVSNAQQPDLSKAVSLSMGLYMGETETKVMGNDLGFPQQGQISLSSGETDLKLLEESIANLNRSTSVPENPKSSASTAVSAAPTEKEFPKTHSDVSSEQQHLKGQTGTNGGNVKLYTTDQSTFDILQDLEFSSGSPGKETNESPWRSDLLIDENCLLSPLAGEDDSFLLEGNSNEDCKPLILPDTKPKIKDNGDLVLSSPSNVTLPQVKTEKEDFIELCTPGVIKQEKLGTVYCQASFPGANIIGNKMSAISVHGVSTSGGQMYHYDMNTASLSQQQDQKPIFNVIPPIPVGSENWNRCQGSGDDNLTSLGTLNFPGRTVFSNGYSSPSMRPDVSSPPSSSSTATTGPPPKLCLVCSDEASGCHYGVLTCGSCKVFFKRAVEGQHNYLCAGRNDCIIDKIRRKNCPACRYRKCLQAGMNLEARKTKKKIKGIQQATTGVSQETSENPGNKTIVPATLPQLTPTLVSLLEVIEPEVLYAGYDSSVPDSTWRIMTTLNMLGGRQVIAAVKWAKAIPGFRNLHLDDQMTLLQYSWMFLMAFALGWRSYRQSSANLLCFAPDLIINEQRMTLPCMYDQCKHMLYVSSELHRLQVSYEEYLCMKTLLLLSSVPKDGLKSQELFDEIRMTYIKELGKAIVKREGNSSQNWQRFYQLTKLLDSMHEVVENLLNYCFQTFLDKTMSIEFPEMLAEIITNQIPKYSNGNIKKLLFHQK
Type: binding
Method in brief: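 Fluorescence polarization kit assay: recombinant GR and GS Red fluorescent ligand with Stabilizing Peptide and DTT in potassium phosphate/sodium molybdate/EDTA screening buffer. Plates incubated 2 h in the dark at r.t.; DMSO served as 0% and dexamethasone as 100% control.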

`Cc1ccc([C@@H](Oc2ccc3c(cnn3-c3ccc(F)cc3)c2)[C@H](C)NC(=O)C(C)(C)C)cc1F` [Example 173, N-[(1R,2S)-1-(3-fluoro-4-methyl-phenyl)-1-[1-(4-fluorophenyl)indazol-5-yl]oxy-propan-2-yl]-2,2-dimethyl-propanamide] and `Cc1c(F)cccc1[C@@H](Oc1ccc2c(cnn2-c2ccc(F)cc2)c1)[C@H](C)NC(=O)C(C)(C)C` [Example 190, N-[(1R,2S)-1-(3-fluoro-2-methyl-phenyl)-1-[1-(4-fluorophenyl)indazol-5-yl]oxy-propan-2-yl]-2,2-dimethyl-propanamide] are within 1.5-fold of each other in IC50: 4.6 nM for the first, 4.5 nM for the second.

First: C[C@H](NC(=O)C(C)(C)C)[C@H](Oc1ccc2c(cnn2-c2ccc(F)cc2)c1)c1ccc(Cl)cc1 [Example 183, N-[(1R,2S)-1-(4-chlorophenyl)-1-[1-(4-fluorophenyl)indazol-5-yl]oxy-propan-2-yl]-2,2-dimethyl-propanamide]
Second: CCCc1ccc([C@@H](Oc2ccc3c(cnn3-c3ccc(F)cc3)c2)[C@H](C)NC(=O)C(C)(C)C)cc1 [Example 188, N-[(1R,2S)-1-[1-(4-fluorophenyl)indazol-5-yl]oxy-1-(4-propylphenyl)propan-2-yl]-2,2-dimethyl-propanamide]
The IC50 of the first is 1.6-fold lower: 4.6 nM for the first, 7.3 nM for the second.

`CCCC(=O)N[C@@H](C)[C@H](Oc1ccc2c(cnn2-c2ccc(F)cc2)c1)c1ccccc1` [Example 41, N-[(1R,2S)-1-[1-(4-fluorophenyl)indazol-5-yl]oxy-1-phenyl-propan-2-yl]butanamide] and `CC(=O)OCC(=O)N[C@@H](C)[C@H](Oc1ccc2c(cnn2-c2ccc(F)cc2)c1)c1ccccc1` [Example 34, [(1R,2S)-1-[1-(4-fluorophenyl)indazol-5-yl]oxy-1-phenyl-propan-2-yl]carbamoylmethyl acetate] are within 1.5-fold of each other in IC50: 2.6 nM for the first, 2.4 nM for the second.

Compared with `CC[C@H](NC(=O)CO)[C@H](Oc1ccc2c(cnn2-c2ccc(F)cc2)c1)c1ccccc1` [Example 95, N-((1R,2S)-1-(1-(4-fluorophenyl)-1H-indazol-5-yloxy)-1-phenylbutan-2-yl)-2-hydroxyacetamide], `C[C@H](NC(=O)C(C)(C)O)[C@H](Oc1ccc2c(cnn2-c2ccc(F)cc2)c1)c1ccccc1` [Example 5, N-[(1R,2S)-1-[1-(4-fluorophenyl)indazol-5-yl]oxy-1-phenyl-propan-2-yl]-2-hydroxy-2-methyl-propanamide] is 1.6-fold lower in IC50: 3.4 nM for the first, 2.1 nM for the second.

Compared with `C[C@H](NC(=O)C1(C)CC1)[C@H](Oc1ccc2c(cnn2-c2ccc(F)cc2)c1)c1ccc(Cl)cc1` [Example 222, N-[(1R,2S)-1-(4-chlorophenyl)-1-[1-(4-fluorophenyl)indazol-5-yl]oxy-propan-2-yl]-1-methyl-cyclopropane-1-carboxamide], `C[C@H](NC(=O)C1(C)CC1)[C@H](Oc1ccc2c(cnn2-c2ccc(F)cc2)c1)c1ccc(C(C)(C)C)cc1` [Example 226, N-[(1R,2S)-1-[1-(4-fluorophenyl)indazol-5-yl]oxy-1-(4-tert-butylphenyl)propan-2-yl]-1-methyl-cyclopropane-1 carboxamide] is 2.1-fold higher in IC50: 3.5 nM for the first, 7.2 nM for the second.

`COc1cccc([C@@H](Oc2ccc3c(cnn3-c3ccc(F)cc3)c2)[C@H](C)NC(=O)C(C)C)c1` [Example 55, N-[(1R,2S)-1-[1-(4-fluorophenyl)indazol-5-yl]oxy-1-(3-methoxyphenyl)propan-2-yl]-2-methyl-propanamide] and `COc1cccc([C@@H](Oc2ccc3c(cnn3-c3ccc(F)cc3)c2)[C@H](C)NC(=O)c2ncco2)c1` [Example 84, N-((1R,2S)-1-(1-(4-fluorophenyl)-1H-indazol-5-yloxy)-1-(3-methoxyphenyl)propan-2-yl)oxazole-2-carboxamide] are within 1.5-fold of each other in IC50: 3.3 nM for the first, 2.3 nM for the second.

`COc1ccc(F)cc1[C@@H](Oc1ccc2c(cnn2-c2ccc(F)cc2)c1)[C@H](C)NC(=O)c1ncc(C)s1` [Example 202, N-[(1R,2S)-1-(5-fluoro-2-methoxy-phenyl)-1-[1-(4-fluorophenyl)indazol-5-yl]oxy-propan-2-yl]-5-methyl-1,3-thiazole-2-carboxamide] and `Cc1cnc(C(=O)N[C@@H](C)[C@H](Oc2ccc3c(cnn3-c3ccc(F)cc3)c2)c2ccc(C)c(F)c2)s1` [Example 194, N-[(1R,2S)-1-(3-fluoro-4-methyl-phenyl)-1-[1-(4-fluorophenyl)indazol-5-yl]oxy-propan-2-yl]-5-methyl-1,3-thiazole-2-carboxamide] are within 1.5-fold of each other in IC50: 5.3 nM for the first, 3.9 nM for the second.

`Cc1cnc(C(=O)N[C@@H](C)[C@H](Oc2ccc3c(cnn3-c3ccc(F)cc3)c2)c2ccc(C)c(C)c2)s1` [Example 192, N-[(1R,2S)-1-(3,4-dimethylphenyl)-1-[1-(4-fluorophenyl)indazol-5-yl]oxy-propan-2-yl]-5-methyl-1,3-thiazole-2-carboxamide] and `Cc1ccc(C)c([C@@H](Oc2ccc3c(cnn3-c3ccc(F)cc3)c2)[C@H](C)NC(=O)C(C)(F)F)c1` [Example 266, N-[(1R,2S)-1-(2,5-dimethylphenyl)-1-[1-(4-fluorophenyl)indazol-5-yl]oxy-propan-2-yl]-2,2-difluoro-propanamide] are within 1.5-fold of each other in IC50: 4.3 nM for the first, 2.9 nM for the second.

`Cc1cccc([C@@H](Oc2ccc3c(cnn3-c3ccc(F)cc3)c2)[C@H](C)NC(=O)C(F)(F)F)c1` [Example 24, 2,2,2-trifluoro-N-[(1R,2S)-1-[1(4-fluorophenyl)indazol-5-yl]oxy-1-(3-methylphenyl)propan-2-yl]acetamide] and `Cc1ccc(C)c([C@@H](Oc2ccc3c(cnn3-c3ccc(F)cc3)c2)[C@H](C)NC(=O)C(F)(F)F)c1` [Example 153, N-[(1R,2S)-1-(2,5-dimethylphenyl)-1-[1-(4-fluorophenyl)indazol-5-yl]oxy-propan-2-yl]-2,2,2-trifluoro-acetamide] are within 1.5-fold of each other in IC50: 3.2 nM for the first, 3.6 nM for the second.

Going from `CSc1ccc([C@@H](Oc2ccc3c(cnn3-c3ccc(F)cc3)c2)[C@H](C)NC(=O)COC(C)=O)cc1` [Example 10, N-[(1R,2S)-1-[1-(4-fluorophenyl)indazol-5-yl]oxy-1-(4-methylsulfanylphenyl)propan-2-yl]carbamoylmethyl acetate] to `C[C@H](NC(=O)C1(O)CC1)[C@H](Oc1ccc2c(cnn2-c2ccc(F)cc2)c1)c1ccc(C(F)(F)F)cc1` [Example 139, N-[(1R,2S)-1-[1-(4-fluorophenyl)indazol-5-yl]oxy-1-[4-(trifluoromethyl)phenyl]propan-2-yl]-1-hydroxy-cyclopropane-1-carboxamide], the IC50 rises from 2.4 nM to 4.1 nM (1.7-fold). The first is the more potent here.

Going from `C[C@H](NC(=O)C(F)(F)F)[C@H](COc1ccccc1)Oc1ccc2c(cnn2-c2ccc(F)cc2)c1` (racemic) [Example 70, 2,2,2-Trifluoro-N-[(2RS,3SR)-3-[1-(4-fluorophenyl)indazol-5-yl]oxy-4-phenoxy-butan-2-yl]acetamide] to `CC(C)(C)C(=O)NC(C(Oc1ccc2c(cnn2-c2ccc(F)cc2)c1)c1ccccc1)C(F)(F)F` (single isomer, unassigned) [Example 147D1E2, N-(1,1,1-trifluoro-3-(1-(4-fluorophenyl)-1H-indazol-5-yloxy)-3-phenylpropan-2-yl)pivalamide], the IC50 falls from 89 nM to 24 nM (3.7-fold). The second is the more potent here.

`C[C@H](NC(=O)C(C)(C)F)[C@H](Oc1ccc2c(cnn2-c2ccc(F)cc2)c1)c1ccc(F)c(F)c1` [Example 241, N-[(1R,2S)-1-(3,4-difluorophenyl)-1-[1-(4-fluorophenyl)indazol-5-yl]oxy-propan-2-yl]-2-fluoro-2-methyl-propanamide] and `Cc1ccc(F)cc1[C@@H](Oc1ccc2c(cnn2-c2ccc(F)cc2)c1)[C@H](C)NC(=O)C(F)(F)F` [Example 157, 2,2,2-trifluoro-N-[(1R,2S)-1-(5-fluoro-2-methyl-phenyl)-1-[1-(4-fluorophenyl)indazol-5-yl]oxy-propan-2-yl]acetamide] are within 1.5-fold of each other in IC50: 4.9 nM for the first, 5.3 nM for the second.

First: C[C@H](NC(=O)[C@@H]1CCCN1)[C@H](Oc1ccc2c(cnn2-c2ccc(F)cc2)c1)c1ccc2c(c1)OCCO2 [Example 125, (S)-N-((1R,2S)-1-(2,3-dihydrobenzo[b][1,4]dioxin-6-yl)-1-(1-(4-fluorophenyl)-1H-indazol-5-yloxy)propan-2-yl)pyrrolidine-2-carboxamide]
Second: COc1cccc([C@@H](Oc2ccc3c(cnn3-c3ccc(F)cc3)c2)[C@H](C)NC(=O)c2ccc(Br)o2)c1 [Example 276, 5-bromo-N-[(1R,2S)-1-[1-(4-fluorophenyl)indazol-5-yl]oxy-1-(3-methoxyphenyl)propan-2-yl]furan-2-carboxamide]
The IC50 of the first is 1.9-fold lower: 6.4 nM for the first, 12 nM for the second.

`COCC(=O)N[C@@H](CO)C(Oc1ccc2c(cnn2-c2ccc(F)cc2)c1)c1cccc(F)c1` (mixture of isomers) [Example 113, N-[(1S)-2-(3-Fluorophenyl)-2-{[1-(4-fluorophenyl)-1H-indazol-5-yl]oxy}-1-(hydroxymethyl)ethyl]-2-methoxyacetamide] showed an IC50 of 24 nM.
